Data as given in ChEMBL document CHEMBL2203238, “Hit to Lead optimization of a novel class of squarate-containing polo-like kinases inhibitors” (Bioorg Med Chem Lett, 2012).

What was measured:
[1] = target: RAC-beta serine/threonine-protein kinase (Homo sapiens, UniProt P31751); assay: Inhibition of recombinant AKT2 after 1 hr by scintillation counter analysis in presence of gamma-[33P]ATP
[2] = target: Non-receptor tyrosine-protein kinase TYK2 (Homo sapiens, UniProt P29597); assay: Inhibition of recombinant TYK2 after 1 hr by scintillation counter analysis in presence of gamma-[33P]ATP
MIA PaCa-2 = assay: Antitumor activity against human MIAPaCa2 cells xenografted in SCID mouse assessed as tumor growth inhibition at 100 mg/kg/day, po measured on day 35 relative to vehicle-treated control; format: functional; details: MIA PaCa-2, 840 h, read-out: TGI
[3] = target: Serine/threonine-protein kinase 3 (Homo sapiens, UniProt Q13188); assay: Inhibition of recombinant MST2 after 1 hr by scintillation counter analysis in presence of gamma-[33P]ATP
[4] = Cmax in mouse at 50 mg/kg, po measured at 1 hr; format: ADME, organism-based; parameters: dose 50 mg/kg, route oral; details: in vivo
[5] = Inhibition of recombinant CK2 after 1 hr by scintillation counter analysis in presence of gamma-[33P]ATP
[6] = Half life in mouse, iv; format: ADME, organism-based; details: in vivo
[7] = target: RAC-gamma serine/threonine-protein kinase (Homo sapiens, UniProt Q9Y243); assay: Inhibition of recombinant AKT3 after 1 hr by scintillation counter analysis in presence of gamma-[33P]ATP
[8] = target: Cell division control protein 42 homolog (Homo sapiens, UniProt P60953); assay: Inhibition of recombinant CDC42 after 1 hr by scintillation counter analysis in presence of gamma-[33P]ATP
[9] = target: Dual specificity tyrosine-phosphorylation-regulated kinase 1A (Homo sapiens, UniProt Q13627); assay: Inhibition of recombinant DYRK1A after 1 hr by scintillation counter analysis in presence of gamma-[33P]ATP
[10] = target: Serine/threonine-protein kinase PAK 1 (Homo sapiens, UniProt Q13153); assay: Inhibition of recombinant PAK1 after 1 hr by scintillation counter analysis in presence of gamma-[33P]ATP
[11] = target: Mitogen-activated protein kinase 8 (Homo sapiens, UniProt P45983); assay: Inhibition of recombinant JNK1A1 after 1 hr by scintillation counter analysis in presence of gamma-[33P]ATP
[12] = target: Receptor tyrosine-protein kinase erbB-2 (Homo sapiens, UniProt P04626); assay: Inhibition of recombinant ERBB2 after 1 hr by scintillation counter analysis in presence of gamma-[33P]ATP
Mus musculus = assay: Toxicity in SCID mouse xenografted with human MIAPaCa2 cells assessed as body weight loss at 100 mg/kg/day, po measured on day 26 to day 44; format: organism-based, MIA PaCa-2; parameters: route oral; details: in vivo
[13] = target: Serine/threonine-protein kinase PLK2 (Homo sapiens, UniProt Q9NYY3); assay: Inhibition of recombinant PLK2 after 1 hr by scintillation counter analysis in presence of gamma-[33P]ATP
[14] = Volume of distribution in mouse; format: ADME, organism-based; details: in vivo
[15] = target: Serine/threonine-protein kinase PLK4 (Homo sapiens, UniProt O00444); assay: Inhibition of recombinant PLK4 after 1 hr by scintillation counter analysis in presence of gamma-[33P]ATP
[16] = target: Serine/threonine-protein kinase PLK1 (Homo sapiens, UniProt P53350); assay: Inhibition of recombinant GST-tagged PLK1 using biotin-ahx-AKMETTFYDDALNASFLPSEKKK-amide as substrate after 30 mins by scintillation counting analysis in presence of gamma-[33P]ATP
[17] = target: Macrophage colony-stimulating factor 1 receptor (Homo sapiens, UniProt P07333); assay: Inhibition of recombinant CSF1R after 1 hr by scintillation counter analysis in presence of gamma-[33P]ATP
[18] = target: Mitogen-activated protein kinase 9 (Homo sapiens, UniProt P45984); assay: Inhibition of recombinant JNK2A2 after 1 hr by scintillation counter analysis in presence of gamma-[33P]ATP
[19] = target: Serine/threonine-protein kinase PLK3 (Homo sapiens, UniProt Q9H4B4); assay: Inhibition of recombinant PLK3 after 1 hr by scintillation counter analysis in presence of gamma-[33P]ATP
[20] = target: Serine/threonine-protein kinase Sgk1 (Homo sapiens, UniProt O00141); assay: Inhibition of recombinant SGK after 1 hr by scintillation counter analysis in presence of gamma-[33P]ATP
LIM domain kinase 1 = LIM domain kinase 1 (Homo sapiens, UniProt P53667); assay: Inhibition of recombinant LIMK1 after 1 hr by scintillation counter analysis in presence of gamma-[33P]ATP
[21] = Oral bioavailability in mouse; format: ADME, organism-based; details: in vivo
[22] = target: Serine/threonine-protein kinase Chk2 (Homo sapiens, UniProt O96017); assay: Inhibition of recombinant CHK2 after 1 hr by scintillation counter analysis in presence of gamma-[33P]ATP
[23] = target: Vascular endothelial growth factor receptor 2 (Homo sapiens, UniProt P35968); assay: Inhibition of recombinant KDR after 1 hr by scintillation counter analysis in presence of gamma-[33P]ATP
[24] = target: Proto-oncogene tyrosine-protein kinase Src (Homo sapiens, UniProt P12931); assay: Inhibition of recombinant SRC after 1 hr by scintillation counter analysis in presence of gamma-[33P]ATP
[25] = target: Serine/threonine-protein kinase Chk1 (Homo sapiens, UniProt O14757); assay: Inhibition of recombinant CHK1 after 1 hr by scintillation counter analysis in presence of gamma-[33P]ATP
[26] = target: Tyrosine-protein kinase JAK3 (Homo sapiens, UniProt P52333); assay: Inhibition of recombinant JAK3 after 1 hr by scintillation counter analysis in presence of gamma-[33P]ATP
[27] = target: Serine/threonine-protein kinase pim-1 (Homo sapiens, UniProt P11309); assay: Inhibition of recombinant PIM1 after 1 hr by scintillation counter analysis in presence of gamma-[33P]ATP
[28] = target: Tyrosine-protein kinase Blk (Homo sapiens, UniProt P51451); assay: Inhibition of recombinant BLK after 1 hr by scintillation counter analysis in presence of gamma-[33P]ATP
[29] = Cmax in mouse at 50 mg/kg, po measured at 8 hrs; format: ADME, organism-based; parameters: dose 50 mg/kg, route oral; details: in vivo
[30] = target: MAP kinase-activated protein kinase 3 (Homo sapiens, UniProt Q16644); assay: Inhibition of recombinant MK3 after 1 hr by scintillation counter analysis in presence of gamma-[33P]ATP
[31] = target: Rho-associated protein kinase 1 (Homo sapiens, UniProt Q13464); assay: Inhibition of recombinant ROCK1 after 1 hr by scintillation counter analysis in presence of gamma-[33P]ATP
[32] = target: Tyrosine-protein kinase Fyn (Homo sapiens, UniProt P06241); assay: Inhibition of recombinant FYN after 1 hr by scintillation counter analysis in presence of gamma-[33P]ATP
[33] = target: BDNF/NT-3 growth factors receptor (Homo sapiens, UniProt Q16620); assay: Inhibition of recombinant TRKB after 1 hr by scintillation counter analysis in presence of gamma-[33P]ATP
BDNF/NT-3 growth factors receptor, sequence (Q16620 whole entry): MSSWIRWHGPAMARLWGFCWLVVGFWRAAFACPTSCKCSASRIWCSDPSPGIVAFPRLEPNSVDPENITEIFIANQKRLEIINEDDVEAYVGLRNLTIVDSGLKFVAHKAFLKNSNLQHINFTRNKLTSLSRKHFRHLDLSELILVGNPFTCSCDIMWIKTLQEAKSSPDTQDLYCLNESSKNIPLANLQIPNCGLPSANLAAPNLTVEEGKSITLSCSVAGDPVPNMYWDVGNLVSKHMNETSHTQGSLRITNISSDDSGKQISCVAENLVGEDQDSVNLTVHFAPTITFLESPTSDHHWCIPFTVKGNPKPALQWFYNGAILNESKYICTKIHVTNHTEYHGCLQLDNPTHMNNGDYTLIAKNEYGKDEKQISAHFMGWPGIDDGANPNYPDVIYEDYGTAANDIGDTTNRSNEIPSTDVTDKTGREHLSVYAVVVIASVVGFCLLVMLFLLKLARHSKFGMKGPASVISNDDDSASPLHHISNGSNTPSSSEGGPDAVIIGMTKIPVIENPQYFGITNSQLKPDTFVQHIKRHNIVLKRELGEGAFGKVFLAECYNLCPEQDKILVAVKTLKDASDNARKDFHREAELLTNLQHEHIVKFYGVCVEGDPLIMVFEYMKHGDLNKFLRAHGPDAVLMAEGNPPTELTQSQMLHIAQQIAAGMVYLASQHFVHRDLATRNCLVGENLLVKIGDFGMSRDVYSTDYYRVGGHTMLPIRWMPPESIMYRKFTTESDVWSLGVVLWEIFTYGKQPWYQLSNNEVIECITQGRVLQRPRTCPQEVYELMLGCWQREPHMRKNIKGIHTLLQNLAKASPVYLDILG

Mitogen-activated protein kinase 8, sequence (P45983 whole entry): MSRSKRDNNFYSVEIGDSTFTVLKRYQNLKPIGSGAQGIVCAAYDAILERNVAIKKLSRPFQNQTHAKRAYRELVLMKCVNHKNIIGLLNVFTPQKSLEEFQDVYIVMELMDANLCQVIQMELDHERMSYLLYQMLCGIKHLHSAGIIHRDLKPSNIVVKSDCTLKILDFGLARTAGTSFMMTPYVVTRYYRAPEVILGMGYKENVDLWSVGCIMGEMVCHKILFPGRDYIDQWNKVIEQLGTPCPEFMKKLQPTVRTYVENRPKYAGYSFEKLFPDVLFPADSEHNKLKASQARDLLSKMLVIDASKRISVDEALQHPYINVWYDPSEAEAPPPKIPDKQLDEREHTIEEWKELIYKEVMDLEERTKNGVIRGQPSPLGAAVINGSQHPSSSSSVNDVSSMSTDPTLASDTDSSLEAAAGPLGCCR
Serine/threonine-protein kinase PLK4, sequence (O00444 whole entry): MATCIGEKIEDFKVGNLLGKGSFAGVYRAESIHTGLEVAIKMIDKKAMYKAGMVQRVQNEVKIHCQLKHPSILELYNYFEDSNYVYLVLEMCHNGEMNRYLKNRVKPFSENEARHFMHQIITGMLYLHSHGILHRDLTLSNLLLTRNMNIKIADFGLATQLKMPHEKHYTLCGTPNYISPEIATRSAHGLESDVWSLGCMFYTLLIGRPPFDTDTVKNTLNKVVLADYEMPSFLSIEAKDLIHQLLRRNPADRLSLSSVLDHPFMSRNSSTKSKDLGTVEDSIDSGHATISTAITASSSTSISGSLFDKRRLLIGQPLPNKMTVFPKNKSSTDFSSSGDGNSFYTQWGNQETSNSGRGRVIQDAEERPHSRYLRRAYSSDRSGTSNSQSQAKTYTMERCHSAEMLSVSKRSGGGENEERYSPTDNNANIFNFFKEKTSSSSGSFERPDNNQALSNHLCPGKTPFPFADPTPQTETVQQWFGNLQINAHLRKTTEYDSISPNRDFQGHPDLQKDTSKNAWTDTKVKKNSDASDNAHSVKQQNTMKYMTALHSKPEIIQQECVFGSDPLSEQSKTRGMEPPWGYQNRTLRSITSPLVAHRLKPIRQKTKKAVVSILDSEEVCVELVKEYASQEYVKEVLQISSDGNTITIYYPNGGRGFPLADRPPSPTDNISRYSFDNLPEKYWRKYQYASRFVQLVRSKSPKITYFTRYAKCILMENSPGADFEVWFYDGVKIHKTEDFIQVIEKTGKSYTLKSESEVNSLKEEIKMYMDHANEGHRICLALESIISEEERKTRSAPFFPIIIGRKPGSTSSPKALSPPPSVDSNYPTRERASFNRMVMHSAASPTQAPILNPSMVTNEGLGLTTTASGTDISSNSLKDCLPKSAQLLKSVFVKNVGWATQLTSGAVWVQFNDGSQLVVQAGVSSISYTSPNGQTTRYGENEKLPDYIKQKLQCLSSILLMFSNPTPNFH
Serine/threonine-protein kinase PLK3, sequence (Q9H4B4 whole entry): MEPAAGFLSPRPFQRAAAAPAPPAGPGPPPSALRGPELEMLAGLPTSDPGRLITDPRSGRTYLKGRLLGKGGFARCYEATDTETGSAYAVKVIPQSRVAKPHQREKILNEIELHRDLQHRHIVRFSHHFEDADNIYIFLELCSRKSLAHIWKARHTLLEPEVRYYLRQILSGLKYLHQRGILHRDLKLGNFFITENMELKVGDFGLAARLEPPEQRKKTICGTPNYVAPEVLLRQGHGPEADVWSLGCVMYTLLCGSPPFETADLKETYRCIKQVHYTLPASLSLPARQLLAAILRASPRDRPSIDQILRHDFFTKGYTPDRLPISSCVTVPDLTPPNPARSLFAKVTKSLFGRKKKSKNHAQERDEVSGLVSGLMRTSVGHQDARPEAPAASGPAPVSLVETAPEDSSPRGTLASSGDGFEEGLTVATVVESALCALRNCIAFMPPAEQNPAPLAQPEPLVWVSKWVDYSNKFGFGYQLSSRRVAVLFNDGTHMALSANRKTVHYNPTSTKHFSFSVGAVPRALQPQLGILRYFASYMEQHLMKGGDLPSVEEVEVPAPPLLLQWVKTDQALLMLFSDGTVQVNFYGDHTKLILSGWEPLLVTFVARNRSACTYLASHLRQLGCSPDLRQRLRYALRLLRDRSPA
Serine/threonine-protein kinase PAK 1, sequence (Q13153 whole entry): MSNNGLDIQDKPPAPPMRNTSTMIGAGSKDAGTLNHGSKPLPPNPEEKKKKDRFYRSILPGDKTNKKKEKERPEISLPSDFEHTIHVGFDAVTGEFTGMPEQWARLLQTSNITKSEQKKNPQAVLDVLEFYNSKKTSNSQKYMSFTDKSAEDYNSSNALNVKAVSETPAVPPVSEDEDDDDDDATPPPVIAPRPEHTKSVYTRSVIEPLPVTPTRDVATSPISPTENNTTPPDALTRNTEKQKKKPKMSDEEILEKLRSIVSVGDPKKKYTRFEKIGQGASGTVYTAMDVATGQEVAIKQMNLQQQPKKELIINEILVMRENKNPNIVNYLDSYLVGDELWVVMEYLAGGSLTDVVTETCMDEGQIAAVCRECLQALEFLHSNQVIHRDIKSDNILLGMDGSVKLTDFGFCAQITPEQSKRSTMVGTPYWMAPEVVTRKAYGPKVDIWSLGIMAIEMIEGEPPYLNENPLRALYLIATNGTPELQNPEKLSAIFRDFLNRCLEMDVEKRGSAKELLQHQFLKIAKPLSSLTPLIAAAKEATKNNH
Non-receptor tyrosine-protein kinase TYK2, sequence (P29597 whole entry): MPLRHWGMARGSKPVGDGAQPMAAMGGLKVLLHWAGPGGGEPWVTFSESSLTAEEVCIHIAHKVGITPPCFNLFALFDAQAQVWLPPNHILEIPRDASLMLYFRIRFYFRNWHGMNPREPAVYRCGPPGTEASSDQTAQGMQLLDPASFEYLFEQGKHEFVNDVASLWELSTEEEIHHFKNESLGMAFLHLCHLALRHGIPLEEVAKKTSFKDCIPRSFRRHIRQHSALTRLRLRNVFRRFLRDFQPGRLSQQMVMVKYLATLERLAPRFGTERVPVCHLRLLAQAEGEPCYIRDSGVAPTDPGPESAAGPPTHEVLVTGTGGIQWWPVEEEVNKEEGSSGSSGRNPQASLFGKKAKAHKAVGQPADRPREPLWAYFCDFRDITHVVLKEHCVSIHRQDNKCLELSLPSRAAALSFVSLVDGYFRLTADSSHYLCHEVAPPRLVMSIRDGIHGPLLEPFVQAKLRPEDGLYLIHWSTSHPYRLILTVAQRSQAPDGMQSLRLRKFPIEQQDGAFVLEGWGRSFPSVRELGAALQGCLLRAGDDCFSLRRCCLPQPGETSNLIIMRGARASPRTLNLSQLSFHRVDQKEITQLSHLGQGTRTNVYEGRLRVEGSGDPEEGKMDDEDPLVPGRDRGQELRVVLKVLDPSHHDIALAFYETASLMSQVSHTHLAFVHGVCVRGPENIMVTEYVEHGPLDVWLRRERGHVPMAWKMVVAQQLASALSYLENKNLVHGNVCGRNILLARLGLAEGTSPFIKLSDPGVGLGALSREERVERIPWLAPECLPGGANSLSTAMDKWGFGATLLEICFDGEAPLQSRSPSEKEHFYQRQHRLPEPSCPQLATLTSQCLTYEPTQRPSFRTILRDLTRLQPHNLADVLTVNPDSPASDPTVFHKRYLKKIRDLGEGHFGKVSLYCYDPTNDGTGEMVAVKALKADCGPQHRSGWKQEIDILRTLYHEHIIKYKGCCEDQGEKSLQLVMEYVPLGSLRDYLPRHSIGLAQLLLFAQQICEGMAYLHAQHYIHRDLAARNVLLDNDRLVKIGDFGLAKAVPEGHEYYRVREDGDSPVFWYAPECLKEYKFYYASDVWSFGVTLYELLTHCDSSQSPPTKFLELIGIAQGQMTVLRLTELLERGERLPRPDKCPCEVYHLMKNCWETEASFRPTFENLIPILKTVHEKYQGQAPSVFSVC
RAC-beta serine/threonine-protein kinase, sequence (P31751 whole entry): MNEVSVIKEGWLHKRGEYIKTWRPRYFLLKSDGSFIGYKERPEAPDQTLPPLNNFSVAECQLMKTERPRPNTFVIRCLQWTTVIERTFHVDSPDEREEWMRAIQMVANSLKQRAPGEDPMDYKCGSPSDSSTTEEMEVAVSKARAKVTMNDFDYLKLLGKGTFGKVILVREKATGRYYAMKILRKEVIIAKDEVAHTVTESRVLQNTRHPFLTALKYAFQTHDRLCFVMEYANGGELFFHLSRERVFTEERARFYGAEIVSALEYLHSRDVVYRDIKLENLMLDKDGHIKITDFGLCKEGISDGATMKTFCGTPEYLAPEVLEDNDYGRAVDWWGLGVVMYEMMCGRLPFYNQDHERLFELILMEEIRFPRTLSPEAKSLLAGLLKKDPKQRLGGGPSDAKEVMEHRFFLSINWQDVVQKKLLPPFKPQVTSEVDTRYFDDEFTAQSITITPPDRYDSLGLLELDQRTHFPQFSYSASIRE

Structure (SMILES): CC(C)(C)Nc1c(Nc2ccnc(Nc3ccc(-c4ccncc4)cc3)n2)c(=O)c1=O
- Ki [1]: > 8 µM
- Ki [2]: > 1900 nM
- inhibition in vivo at 100 mg/kg/day (MIA PaCa-2): 38%
- Ki [3]: 2900 nM
- Cmax [4]: 5.4 µM
- Ki [5]: 276 nM
- half-life [6]: 20.4 min
- Ki [7]: > 9 µM
- Ki [8]: > 4.4 µM
- Ki [9]: > 6.8 µM
- Ki [10]: > 9.7 µM
- Ki [11]: > 3 µM
- Ki [12]: > 1400 nM
- Activity (Mus musculus): Non-toxic
- Ki [13]: 2 nM
- Vd [14]: 3.7 L/kg
- Ki [15]: 7 nM
- Ki [16]: 5 nM
- Ki [17]: 2100 nM
- Ki [18]: 262 nM
- Ki [19]: 2 nM
- Ki [20]: 260 nM
- Ki (LIM domain kinase 1): 194 nM
- bioavailability [21]: 100%
- Ki [22]: 88 nM
- Ki [23]: 98 nM
- Ki [24]: > 1900 nM
- Ki [25]: 167 nM
- Ki [26]: > 1700 nM
- Ki [27]: 1600 nM
- Ki [28]: > 1400 nM
- Cmax [29]: 3.3 µM
- Ki [30]: > 9.2 µM
- Ki [31]: 220 nM
- Ki [32]: 328 nM
- Ki [33]: > 4.5 µM
